Assay results published in patent US7179615B1 (priority 1997, dated 2007).

Experiments:
[1] = tested on: VCAM-1; conditions: 0.2 mmol/l, 24 hours in conjunction with IL-1; cited from earlier work
[2] = tested on: endothelial cells; conditions: 0.2 mmol/l, 24 hours in conjunction with IL-1; cited from earlier work
[3] = tested on: cytoadherence of P. falciparum parasitised red cells to C32 melanoma cells; test: C32 melanoma cell cytoadherence assay with SNO-cysteine-treated parasitised red cells; assay type: cell-based, Plasmodium falciparum; conditions: Expt 5: JR strain, SNO-cysteine final concentration 5 mM, 40 minutes, parasitised red cells resuspended in 2% w/v borate

Structure (SMILES)	inhibition of VCAM-1 [1]	endothelial toxicity [2]	binding (cytoadherence to C32 melanoma cells) [3] [%]
N[C@@H](CCC(=O)N[C@@H](CSN=O)C(=O)NCC(=O)O)C(=O)O [SNO-glutathione]	maximal inhibition of VCAM-1	minimal endothelial toxicity	
N[C@@H](CSN=O)C(=O)O [SNO-cysteine]			0
